Molecules are shown by their SMILES.

Results on 16 compounds are retold here after patent publication US8389554B2, “Imidazothiadiazole derivatives” (Merck Patent Gesellschaft mit Beschränkter Haftung, priority 2008, dated 2013).

The target of the experiment is T1, GST-ALK5 (Homo sapiens, UniProt P36897).
T1 sequence (P36897 34-503): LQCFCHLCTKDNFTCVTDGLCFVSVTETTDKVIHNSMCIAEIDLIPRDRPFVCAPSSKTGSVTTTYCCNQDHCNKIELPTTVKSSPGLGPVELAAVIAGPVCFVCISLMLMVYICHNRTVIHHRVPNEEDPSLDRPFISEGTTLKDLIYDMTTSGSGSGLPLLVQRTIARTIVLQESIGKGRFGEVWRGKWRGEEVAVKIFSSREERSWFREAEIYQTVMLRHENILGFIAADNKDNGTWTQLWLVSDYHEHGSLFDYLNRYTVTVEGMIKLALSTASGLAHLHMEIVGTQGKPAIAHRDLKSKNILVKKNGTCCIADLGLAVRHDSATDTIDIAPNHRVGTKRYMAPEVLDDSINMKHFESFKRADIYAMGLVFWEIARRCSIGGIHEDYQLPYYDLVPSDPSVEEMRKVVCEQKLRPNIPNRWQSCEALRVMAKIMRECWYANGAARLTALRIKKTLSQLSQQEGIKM
Kind of experiment: In-vitro (enzyme) flashplate kinase assay, inhibition of TGF-beta receptor I kinase. Format: biochemical. The settings on record: 384-well flashplate, GST-ALK5, GST-SMAD2 substrate, 3 mM ATP, 30° C., 45 min. The procedure: In-Vitro (Enzyme) Assay for Determination of the Efficacy of Inhibitors of the Inhibition of TGF-Beta-Mediated Effects
The kinase assay was carried out as 384-well flashplate assay. 31.2 nM of GST-ALK5, 439 nM of GST-SMAD2 and 3 mM of ATP (with 0.3 μCi of ^33P-ATP/well) were incubated in a total volume of 35 μl (20 mM of HEPES, 10 mM of MgCl2, 5 mM of MnCl2, 1 mM of DTT, 0.1% of BSA, pH 7.4) without or with test substance (5-10 concentrations) at 30° C. for 45 min. The reaction was stopped using 25 μl of 200 mM EDTA solution, filtered with suction at room temperature after 30 min, and the wells were washed with 3 times 100 μl of 0.9% NaCl solution. Radioactivity was measured in the TopCount. The IC50 values were calculated using RS1 (Table 1). Above and below, all temperatures were indicated in ° C.
Consider `COc1cc(-c2cnc3sc(NCCc4ccccn4)nn23)cc(OC)c1OC` [No 20, (2-Pyridin-2-yl-ethyl)-[5-(3,4,5-trimethoxy-phenyl)-imidazo[2,1-b][1,3,4]thiadiazol-2-yl]-amine], for which the IC50 was 270 nM.
Compound `Cc1cc(-c2cnc3sc(NCc4ccco4)nn23)cc(C)c1O` [No 38, 4-{2-[(Furan-2-ylmethyl)-amino]-imidazo[2,1-b][1,3,4]thiadiazol-5-yl}-2,6-dimethyl-phenol] came in with an IC50 of 240 nM.
Regarding `CC(=O)c1cccc(-c2cnc3sc(NCCN4CCOCC4)nn23)c1` [No 158, 1-{3-[2-(2-Morpholin-4-yl-ethylamino)-imidazo[2,1-b][1,3,4]thiadiazol-5-yl]-phenyl}-ethanone], the concentration for half-maximal inhibition (IC50) was determined as 780 nM.
As to `COc1cc(-c2cnc3sc(NCc4cccs4)nn23)cc(OC)c1OC` [No 165, Thiophen-2-ylmethyl-[5-(3,4,5-trimethoxy-phenyl)-imidazo[2,1-b][1,3,4]thiadiazol-2-yl]-amine], half-maximal inhibition (IC50) required 330 nM.
Take `COc1cc(-c2cnc3sc(NCC(C)C)nn23)cc(OC)c1OC` [No 266, Isobutyl-[5-(3,4,5-trimethoxy-phenyl)-imidazo[2,1-b][1,3,4]thiadiazol-2-yl]-amine]: the IC50 amounted to 820 nM.
With `COc1cc(-c2cnc3sc(NCC4CCOCC4)nn23)cc(OC)c1OC` [No 274, (Tetrahydro-pyran-4-ylmethyl)-[5-(3,4,5-trimethoxy-phenyl)-imidazo[2,1-b][1,3,4]thiadiazol-2-yl]-amine], the IC50 worked out at 810 nM.
As for `COc1cc(-c2cnc3sc(NCCOc4ccccc4)nn23)cc(OC)c1OC` [No 277, (2-Phenoxy-ethyl)-[5-(3,4,5-trimethoxy-phenyl)-imidazo[2,1-b][1,3,4]thiadiazol-2-yl]-amine], the figure is 780 nM; as for `COc1cc(-c2cnc3sc(NCc4cccs4)nn23)ccc1O` [No 307, 2-Methoxy-4-{2-[(thiophen-2-ylmethyl)-amino]-imidazo[2,1-b][1,3,4]thiadiazol-5-yl}-phenol], 740 nM.
`CC(=O)c1cccc(-c2cnc3sc(NCCc4ccncc4)nn23)c1` [No 360] yielded an IC50 of 700 nM.
With `COc1cc(-c2cnc3sc(NC4CCC(O)CC4)nn23)cc(OC)c1OC` (stereo not shown) [No 363, 4-[5-(3,4,5-Trimethoxy-phenyl)-imidazo[2,1-b][1,3,4]thiadiazol-2-ylamino]-cyclohexanol], it took 570 nM to reach half-maximal inhibition (IC50).
On to `COc1cc(-c2cnc3sc(NCc4cccnc4)nn23)cc(OC)c1OC` [No 416, Pyridin-3-ylmethyl-[5-(3,4,5-trimethoxy-phenyl)-imidazo[2,1-b][1,3,4]thiadiazol-2-yl]-amine], for which the IC50 is 670 nM.
The compound `COc1cc(-c2cnc3sc(NCCc4ccncc4)nn23)cc(OC)c1OC` [No 442, (2-Pyridin-4-yl-ethyl)-[5-(3,4,5-trimethoxy-phenyl)-imidazo[2,1-b][1,3,4]thiadiazol-2-yl]-amine] yielded a 50% inhibitory concentration (IC50) of 480 nM.
The compound `COc1cc(-c2cnc3sc(NCCCO)nn23)cc(OC)c1OC` [No 456, 3-[5-(3,4,5-Trimethoxy-phenyl)-imidazo[2,1-b][1,3,4]thiadiazol-2 - ylamino]-propan-1-ol] came in with a 50% inhibitory concentration (IC50) of 740 nM.
`COc1cc(-c2cnc3sc(NCCc4ccc(S(N)(=O)=O)cc4)nn23)cc(OC)c1OC` [No 464, 4-{2-[5-(3,4,5-Trimethoxy-phenyl)-imidazo[2,1-b][1,3,4]thiadiazol-2-ylamino]-ethyl}-benzenesulfonamide] displayed an IC50 of 160 nM.
`CC(=O)c1cccc(-c2cnc3sc(NCCc4ccc(S(N)(=O)=O)cc4)nn23)c1` [No 490, 4-{2-[5-(3-Acetyl-phenyl)-imidazo[2,1-b][1,3,4]thiadiazol-2-ylamino]-ethyl}-benzenesulfonamide] had a 50% inhibitory concentration (IC50) of 360 nM.
As to `COc1cc(-c2cnc3sc(NCCN4CCOCC4)nn23)cc(OC)c1OC` [No 495, (2-Morpholin-4-yl-ethyl)-[5-(3,4,5-trimethoxy-phenyl)-imidazo[2,1-b][1,3,4]thiadiazol-2-yl]-amine], inhibition was half-maximal at 490 nM (IC50).
